Laboratory results taken from ChEMBL document CHEMBL4422692, “Plant-Based Modulators of Endocannabinoid Signaling” (J Nat Prod, 2019).
Values belong to the compound of their own block, whether it stands above or below them.

Columns and labels:
Cannabinoid receptor 2 [1] = target: T1, Cannabinoid receptor 2 (Homo sapiens, UniProt P34972); assay: Displacement of [3H]-CP55940 from recombinant human CB2 receptor expressed in HEK293 cell membranes after 90 mins by scintillation counting method
Cannabinoid receptor 1 [2] = target: T2, Cannabinoid receptor 1 (Homo sapiens, UniProt P21554); assay: Displacement of [3H]-CP55940 from recombinant human CB1 receptor expressed in HEK293-EBNA cell membranes after 90 mins by scintillation counting method
T2 sequence (P21554 whole entry): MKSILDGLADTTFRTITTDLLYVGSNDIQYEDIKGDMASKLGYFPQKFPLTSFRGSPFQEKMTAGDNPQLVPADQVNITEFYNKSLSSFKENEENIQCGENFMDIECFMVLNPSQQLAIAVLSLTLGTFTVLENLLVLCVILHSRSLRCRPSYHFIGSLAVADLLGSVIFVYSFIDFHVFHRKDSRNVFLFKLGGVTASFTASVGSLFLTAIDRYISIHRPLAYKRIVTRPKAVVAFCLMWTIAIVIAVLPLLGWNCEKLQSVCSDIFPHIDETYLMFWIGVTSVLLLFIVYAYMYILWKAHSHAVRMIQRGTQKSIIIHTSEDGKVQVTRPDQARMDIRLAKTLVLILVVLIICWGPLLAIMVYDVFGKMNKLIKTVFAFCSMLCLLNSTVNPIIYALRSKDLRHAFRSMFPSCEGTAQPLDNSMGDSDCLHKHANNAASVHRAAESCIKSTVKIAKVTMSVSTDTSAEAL

Cannabinoid receptor 1 [3] = target: Cannabinoid receptor 1 (Rattus norvegicus, UniProt P20272); assay: Displacement of [3H]-CP55940 from CB1 receptor in rat […] membranes after 60 mins by scintillation counting method; assay type: cell membranes
Chain of Cannabinoid receptor 1 (Rattus norvegicus, UniProt P20272) (P20272 whole entry): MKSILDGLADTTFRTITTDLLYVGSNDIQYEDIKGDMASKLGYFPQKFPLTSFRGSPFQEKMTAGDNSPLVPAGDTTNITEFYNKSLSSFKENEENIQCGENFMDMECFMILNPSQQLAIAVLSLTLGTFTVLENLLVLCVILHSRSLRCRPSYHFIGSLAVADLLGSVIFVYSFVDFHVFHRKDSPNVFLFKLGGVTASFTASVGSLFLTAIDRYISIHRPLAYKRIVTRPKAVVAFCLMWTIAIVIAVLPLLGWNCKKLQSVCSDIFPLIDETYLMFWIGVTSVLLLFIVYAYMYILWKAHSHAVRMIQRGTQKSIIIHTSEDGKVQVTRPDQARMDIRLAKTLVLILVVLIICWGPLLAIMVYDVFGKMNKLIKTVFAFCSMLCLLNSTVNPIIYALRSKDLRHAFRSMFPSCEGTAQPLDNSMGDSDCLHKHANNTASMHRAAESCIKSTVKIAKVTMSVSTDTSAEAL

Cannabinoid receptor 2 [4] = target: Cannabinoid receptor 2 (Mus musculus, UniProt P47936); assay: Displacement of [3H]-CP55940 from CB2 receptor in mouse spleen membranes after 60 mins by scintillation counting method; assay type: cell membranes
Chain of Cannabinoid receptor 2 (Mus musculus, UniProt P47936) (P47936 whole entry): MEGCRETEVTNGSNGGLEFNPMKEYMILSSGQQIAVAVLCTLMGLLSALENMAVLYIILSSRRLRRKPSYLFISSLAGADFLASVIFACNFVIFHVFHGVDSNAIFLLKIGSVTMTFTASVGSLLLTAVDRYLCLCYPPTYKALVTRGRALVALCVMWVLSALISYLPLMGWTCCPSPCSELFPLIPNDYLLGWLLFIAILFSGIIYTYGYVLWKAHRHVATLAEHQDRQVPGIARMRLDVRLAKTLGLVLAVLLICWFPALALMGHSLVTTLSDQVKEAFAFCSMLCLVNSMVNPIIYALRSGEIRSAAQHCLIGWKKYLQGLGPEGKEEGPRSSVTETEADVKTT

Cannabinoid receptor 2 [5] = target: T1, Cannabinoid receptor 2; assay: Displacement of [3H]-CP55940 from recombinant CB2 receptor (unknown origin) expressed in cell membranes after 90 mins by scintillation counting method
Cannabinoid receptor 2 [6] = target: T1, Cannabinoid receptor 2; assay: Displacement of [3H]-CP55940 from recombinant human CB2 receptor expressed in HEK293 cell membranes measured after 90 mins
Cannabinoid receptor 2 [7] = target: T1, Cannabinoid receptor 2; assay: Displacement of [3H]-CP55940 from CB2 receptor (unknown origin)
Cannabinoid receptor 1 [8] = target: T2, Cannabinoid receptor 1; assay: Displacement of [3H]-CP55940 from CB1 receptor (unknown origin)
[9] = target: Fatty acid-binding protein 5 (Homo sapiens, UniProt Q01469); assay: Displacement of NBD-Stearate from recombinant human FABP5 measured after 30 mins by fluorescence polarization assay
Chain of Fatty acid-binding protein 5 (Q01469 whole entry): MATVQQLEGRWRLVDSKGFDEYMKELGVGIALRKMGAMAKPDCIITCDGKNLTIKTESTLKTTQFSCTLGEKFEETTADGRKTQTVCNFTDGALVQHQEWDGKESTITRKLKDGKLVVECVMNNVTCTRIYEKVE

Cannabinoid receptor 1 [10] = target: T2, Cannabinoid receptor 1; assay: Displacement of [3H]-CP55940 from recombinant human CB1 receptor measured after 2 hrs by liquid scintillation counting method
Cannabinoid receptor 2 [11] = target: T1, Cannabinoid receptor 2; assay: Displacement of [3H]-CP55940 from recombinant human CB2 receptor measured after 2 hrs by liquid scintillation counting method
[12] = target: T3, Fatty-acid amide hydrolase 1 (Homo sapiens) (UniProt O00519); assay: Inhibition of FAAH in human U937 cell homogenates at 100 uM using [14C]-AEA as substrate preincubated for 15 mins followed by substrate addition and measured after 15 mins by liquid scintillation counting method relative to control
T3 sequence (whole entry): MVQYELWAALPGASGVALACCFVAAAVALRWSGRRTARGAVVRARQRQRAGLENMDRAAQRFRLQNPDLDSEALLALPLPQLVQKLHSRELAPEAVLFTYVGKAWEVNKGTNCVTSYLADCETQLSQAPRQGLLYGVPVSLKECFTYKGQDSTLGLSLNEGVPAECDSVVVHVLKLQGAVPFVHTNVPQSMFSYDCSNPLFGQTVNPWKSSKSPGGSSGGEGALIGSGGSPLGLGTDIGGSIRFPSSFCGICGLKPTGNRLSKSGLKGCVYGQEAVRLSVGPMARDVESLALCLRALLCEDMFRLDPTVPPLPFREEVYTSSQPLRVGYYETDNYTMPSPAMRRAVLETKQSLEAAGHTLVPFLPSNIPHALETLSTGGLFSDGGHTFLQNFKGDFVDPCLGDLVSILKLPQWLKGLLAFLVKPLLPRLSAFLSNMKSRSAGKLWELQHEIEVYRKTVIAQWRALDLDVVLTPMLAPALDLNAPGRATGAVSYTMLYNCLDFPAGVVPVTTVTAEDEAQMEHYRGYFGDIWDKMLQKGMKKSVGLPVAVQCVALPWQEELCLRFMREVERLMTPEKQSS

[13] = target: T4, Fatty-acid amide hydrolase 1 (Homo sapiens, UniProt O00519); assay: Inhibition of FAAH in human U937 cell homogenates using [14C]-AEA as substrate preincubated for 15 mins followed by substrate addition and measured after 15 mins by liquid scintillation counting method
T4 sequence (O00519 whole entry): T3 sequence (whole entry)

U-937 = assay: Inhibition of [14C]-AEA uptake in human U937 cells preincubated for 15 mins followed by [14C]-AEA addition and measured after 5 mins by scintillation counting method; assay type: functional, cell-based
Monoglyceride lipase = target: T5, Monoglyceride lipase (Homo sapiens, UniProt Q99685); assay: Inhibition of MAGL in human U937 cell homogenates using [3H]-2OG as substrate preincubated for 15 mins followed by substrate addition and measured after 15 mins by liquid scintillation counting method
T5 sequence (Q99685 whole entry): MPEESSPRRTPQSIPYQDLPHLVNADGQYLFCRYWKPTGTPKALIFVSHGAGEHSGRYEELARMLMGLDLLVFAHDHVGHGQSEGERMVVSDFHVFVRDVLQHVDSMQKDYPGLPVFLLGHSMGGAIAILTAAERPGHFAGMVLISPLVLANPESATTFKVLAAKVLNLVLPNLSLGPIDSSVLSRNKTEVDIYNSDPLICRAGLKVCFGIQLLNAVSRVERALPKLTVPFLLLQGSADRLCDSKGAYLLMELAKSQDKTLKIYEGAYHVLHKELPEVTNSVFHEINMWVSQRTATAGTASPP

T1 sequence (P34972 whole entry): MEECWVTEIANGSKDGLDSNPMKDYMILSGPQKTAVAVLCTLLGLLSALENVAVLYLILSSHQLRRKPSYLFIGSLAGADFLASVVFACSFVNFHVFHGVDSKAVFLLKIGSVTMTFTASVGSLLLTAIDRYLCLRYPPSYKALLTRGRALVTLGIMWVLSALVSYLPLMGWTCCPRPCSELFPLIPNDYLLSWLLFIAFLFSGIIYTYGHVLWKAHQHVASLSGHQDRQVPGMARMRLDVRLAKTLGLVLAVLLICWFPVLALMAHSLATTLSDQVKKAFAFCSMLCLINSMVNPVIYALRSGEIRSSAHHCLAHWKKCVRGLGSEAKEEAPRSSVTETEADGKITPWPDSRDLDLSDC

Ki (Cannabinoid receptor 2 [1]): > 40 µM
Ki (Cannabinoid receptor 1 [2]): > 40 µM
SMILES: C#CC#CCCCC/C=C/C(=O)NCC(C)C

SMILES: CC#CC#CCCCC/C=C/C(=O)NCC(C)CC (stereo unspecified)
Ki (Cannabinoid receptor 1 [3]): 6.73 µM
Ki (Cannabinoid receptor 2 [4]): 7.2 µM

Ki (Cannabinoid receptor 2 [5]): 4.53 µM
SMILES: C/C=C\C=C\CC/C=C/C=C/C(=O)NCC(C)C

SMILES: CC#CC#CCCCC/C=C/C=C/C(=O)NCC(C)C
Ki (Cannabinoid receptor 1 [3]): 24.6 µM
Ki (Cannabinoid receptor 2 [4]): 1.87 µM

Ki (Cannabinoid receptor 1 [3]): 11 µM
Ki (Cannabinoid receptor 2 [4]): 8.38 µM
SMILES: CCC/C=C\CC/C=C/C=C/C(=O)NCC(C)C

Ki (Cannabinoid receptor 2 [5]): 9.04 µM
SMILES: C/C=C/C=C\CC/C=C/C=C/C(=O)NCC(C)C

Ki (Cannabinoid receptor 2 [1]): 0.057 µM
Ki (Cannabinoid receptor 1 [2]): 6.21 µM
SMILES: C/C=C\C=C/CC/C=C/C=C/C(=O)NCC(C)C

Ki (Cannabinoid receptor 2 [6]): 0.828 µM
SMILES: CC(C)=CCC/C(C)=C/Cc1c(O)cc(CCc2ccccc2)c(C(=O)O)c1O

Ki (Cannabinoid receptor 2 [7]): 95.6 µM
Ki (Cannabinoid receptor 1 [8]): 47.3 µM
SMILES: O=C(O[C@@H]1Cc2c(O)cc(O)cc2O[C@@H]1c1ccc(O)c(O)c1)c1cc(O)c(O)c(O)c1 [EPICATECHIN GALLATE]

SMILES: Oc1cc(O)c2c(c1)O[C@H](c1cc(O)c(O)c(O)c1)[C@H](O)C2 [EPIGALLOCATECHIN]
Ki (Cannabinoid receptor 2 [7]): 361 µM
Ki (Cannabinoid receptor 1 [8]): 35.7 µM

SMILES: O=C(O[C@@H]1Cc2c(O)cc(O)cc2O[C@@H]1c1cc(O)c(O)c(O)c1)c1cc(O)c(O)c(O)c1 [EPIGALOCATECHIN GALLATE]
Ki (Cannabinoid receptor 2 [7]): 42.8 µM

SMILES: CC(C)CNC(=O)/C=C/C=C/CCCCCC/C=C/c1ccc2c(c1)OCO2 [GUINEENSINE]
Ki [9]: > 100 µM
Ki (Cannabinoid receptor 1 [10]): > 20 µM
Ki (Cannabinoid receptor 2 [11]): 38.3 µM
inhibition [12]: 59%
IC50 [13]: 46.8 µM
Efficacy (U-937): 65%
EC50 (U-937; Homo sapiens, U-937): 0.29 µM
Ki (Monoglyceride lipase): > 100 µM
